Measurements as given in publication PMC3115714 (Bioorganic & medicinal chemistry, 2011).

Legend:
[1] = target: μ-opioid receptor (CHO hMOR) (Homo sapiens, UniProt P35372); assay type: binding
[2] = target: δ-opioid receptor (CHO hDOR) (Homo sapiens, UniProt P41143); assay: Opioid receptor binding assay, [3H]DADLE displacement in hDOR-CHO cell membranes; conditions: selectivity μ over δ, from Ki
[3] = target: κ-opioid receptor (CHO hKOR) (Homo sapiens, UniProt P41145); assay type: binding
[4] = target: μ-opioid receptor (hMOR-CHO) (Homo sapiens, UniProt P35372); assay: biochemical; assay type: biochemical
[5] = target: κ-opioid receptor (hKOR-CHO) (Homo sapiens, UniProt P41145); assay: biochemical; assay type: biochemical
κ-opioid receptor (hKOR-CHO), sequence (P41145 whole entry): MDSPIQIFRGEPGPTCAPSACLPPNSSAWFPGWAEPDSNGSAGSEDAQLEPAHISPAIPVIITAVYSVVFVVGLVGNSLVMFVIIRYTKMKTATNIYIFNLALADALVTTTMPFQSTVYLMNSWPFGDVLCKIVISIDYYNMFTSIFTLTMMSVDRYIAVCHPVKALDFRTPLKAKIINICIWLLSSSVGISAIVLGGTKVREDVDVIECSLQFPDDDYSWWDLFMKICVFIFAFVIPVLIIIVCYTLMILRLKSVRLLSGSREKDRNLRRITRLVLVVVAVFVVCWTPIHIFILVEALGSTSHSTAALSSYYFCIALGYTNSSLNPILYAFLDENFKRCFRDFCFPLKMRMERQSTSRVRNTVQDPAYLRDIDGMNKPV

μ-opioid receptor (hMOR-CHO), sequence (P35372 whole entry): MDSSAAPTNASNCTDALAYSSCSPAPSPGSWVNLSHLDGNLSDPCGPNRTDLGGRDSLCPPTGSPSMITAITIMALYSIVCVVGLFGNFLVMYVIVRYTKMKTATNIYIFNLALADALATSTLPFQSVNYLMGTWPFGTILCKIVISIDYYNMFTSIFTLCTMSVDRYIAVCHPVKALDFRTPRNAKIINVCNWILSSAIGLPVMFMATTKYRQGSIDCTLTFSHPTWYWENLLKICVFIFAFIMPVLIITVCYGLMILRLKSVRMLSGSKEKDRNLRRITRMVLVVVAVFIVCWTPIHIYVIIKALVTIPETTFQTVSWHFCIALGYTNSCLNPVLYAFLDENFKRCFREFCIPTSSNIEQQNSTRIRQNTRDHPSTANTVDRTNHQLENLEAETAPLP
κ-opioid receptor (CHO hKOR), sequence (P41145 whole entry): as the sequence (P41145 whole entry) above
μ-opioid receptor (CHO hMOR), sequence (P35372 whole entry): as the sequence (P35372 whole entry) above
δ-opioid receptor (CHO hDOR), sequence (P41143 whole entry): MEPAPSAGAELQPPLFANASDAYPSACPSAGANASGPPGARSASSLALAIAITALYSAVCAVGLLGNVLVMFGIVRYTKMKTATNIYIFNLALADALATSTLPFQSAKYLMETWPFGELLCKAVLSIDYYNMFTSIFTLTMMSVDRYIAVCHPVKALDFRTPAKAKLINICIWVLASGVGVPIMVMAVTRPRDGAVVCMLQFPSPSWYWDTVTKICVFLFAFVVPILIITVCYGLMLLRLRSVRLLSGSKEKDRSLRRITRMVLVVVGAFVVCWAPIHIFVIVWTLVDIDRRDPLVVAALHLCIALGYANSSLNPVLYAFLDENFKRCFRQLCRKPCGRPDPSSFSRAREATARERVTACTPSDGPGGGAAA

Oc1cccc2c1O[C@@H]1CN(CCc3ccccc3)[C@@H]3CCC[C@]21C3 (relative stereo) [Cmpd 12, (3R*,6aS*,11aS*)-2-Phenethyl-2,3,4,5,6,11a-hexahydro-1H -3,6a-methanobenzofuro[2,3-c]azocin-10-ol]
μ affinity relative to morphine [1]: two to three times the affinity of morphine | fold less affinity for δ-receptors than for the μ-receptor [2]: about 1200 fold | fold less affinity for κ-receptors than for the μ-receptor [3]: about 50 fold | Kb [4]: 0.71 ± 0.09 nM | potency as μ-opioid antagonist relative to naloxone [4]: more than three times as potent as naloxone | Kb [5]: 1.79 ± 0.51 nM | κ-opioid antagonist potency relative to norBNI [5]: one tenth the potency of norBNI
